# Experimental data taken from PubChem BioAssay (NCI).
# Where “and” joins values, the source holds several entries; their conditions need not be identical. Equal entries are not always repeated.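 Five compound concentrations were applied to cells in 96-well plates for 48 hours; endpoints were derived by simple linear interpolation of the resulting dose-response curve. GI50 is the concentration that inhibits growth by half. TGI: total growth inhibition.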
# Legend:
# Assay in all cases: DTP human tumour cell line panel, 48 h
# MDA-MB-435 = test system: MDA-MB-435
# CCRF-CEM leukemia = test system: CCRF-CEM leukemia
# SK-MEL-28 melanoma = test system: SK-MEL-28 melanoma
# HL-60(TB) leukemia = test system: HL-60(TB) leukemia
# SNB-19 CNS = test system: SNB-19 CNS
# NCI/ADR-RES ovarian = test system: NCI/ADR-RES ovarian
# SNB-75 CNS = test system: SNB-75 CNS
# SF-539 CNS = test system: SF-539 CNS
# MOLT-4 leukemia = test system: MOLT-4 leukemia
# MDA-MB-231 breast = test system: MDA-MB-231 breast
# IGROV1 ovarian = test system: IGROV1 ovarian
# U251 CNS = test system: U251 CNS
# OVCAR-3 ovarian = test system: OVCAR-3 ovarian
# UACC-257 melanoma = test system: UACC-257 melanoma
# HCT-116 colon = test system: HCT-116 colon
# RPMI-8226 leukemia = test system: RPMI-8226 leukemia
# SN12C renal = test system: SN12C renal
# HS 578T breast = test system: HS 578T breast
# COLO 205 colon = test system: COLO 205 colon
# HT29 colon = test system: HT29 colon
# SK-MEL-2 melanoma = test system: SK-MEL-2 melanoma
# BT-549 breast = test system: BT-549 breast
# K-562 leukemia = test system: K-562 leukemia
# MDA-N = test system: MDA-N
# HOP-62 NSCLC = test system: HOP-62 NSCLC
# NCI-H460 lung = test system: NCI-H460 lung
# A498 renal = test system: A498 renal
# MCF7 breast = test system: MCF7 breast
# KM12 colon = test system: KM12 colon
# OVCAR-8 ovarian = test system: OVCAR-8 ovarian
# NCI-H226 lung = test system: NCI-H226 lung
# A549 NSCLC = test system: A549 NSCLC
# OVCAR-5 ovarian = test system: OVCAR-5 ovarian
# OVCAR-4 ovarian = test system: OVCAR-4 ovarian
# SF-268 CNS = test system: SF-268 CNS
# NCI-H23 lung = test system: NCI-H23 lung
# ACHN renal = test system: ACHN renal
# LOX IMVI melanoma = test system: LOX IMVI melanoma
# SF-295 CNS = test system: SF-295 CNS
# UACC-62 melanoma = test system: UACC-62 melanoma
# CAKI-1 renal = test system: CAKI-1 renal
# TK-10 renal = test system: TK-10 renal
# HCT-15 colon = test system: HCT-15 colon
# 786-0 renal = test system: 786-0 renal
# EKVX NSCLC = test system: EKVX NSCLC
# PC-3 prostate = test system: PC-3 prostate
# SW-620 colon = test system: SW-620 colon
# SK-MEL-5 melanoma = test system: SK-MEL-5 melanoma
# NCI-H522 lung = test system: NCI-H522 lung
# M14 melanoma = test system: M14 melanoma
# SK-OV-3 ovarian = test system: SK-OV-3 ovarian
# T-47D breast = test system: T-47D breast
# DU-145 prostate = test system: DU-145 prostate
# UO-31 renal = test system: UO-31 renal
# HCC-2998 colon = test system: HCC-2998 colon
# HOP-92 NSCLC = test system: HOP-92 NSCLC
# RXF 393 renal = test system: RXF 393 renal
structure (smiles),measurement,setting,value
O=C(Nc1ccn(C2CC(O)C(CO)O2)c(=O)n1)c1ccccc1 (configuration not stated),TGI,MDA-MB-435,> 100 µM
same,TGI,CCRF-CEM leukemia,> 100 µM
same,TGI,SK-MEL-28 melanoma,> 100 µM
same,TGI,HL-60(TB) leukemia,> 100 µM
same,TGI,SNB-19 CNS,> 100 µM
same,TGI,NCI/ADR-RES ovarian,> 100 µM
same,TGI,SNB-75 CNS,> 100 µM
same,TGI,SF-539 CNS,> 100 µM
same,TGI,MOLT-4 leukemia,> 100 µM
same,TGI,MDA-MB-231 breast,> 100 µM
same,TGI,IGROV1 ovarian,> 100 µM
same,TGI,U251 CNS,> 100 µM
same,TGI,OVCAR-3 ovarian,> 100 µM
same,TGI,UACC-257 melanoma,> 100 µM
same,TGI,HCT-116 colon,> 100 µM
same,TGI,RPMI-8226 leukemia,> 100 µM
same,TGI,SN12C renal,> 100 µM
same,TGI,HS 578T breast,> 100 µM
same,TGI,COLO 205 colon,> 100 µM
same,TGI,HT29 colon,> 100 µM
same,TGI,SK-MEL-2 melanoma,> 100 µM
same,TGI,BT-549 breast,> 100 µM
same,TGI,K-562 leukemia,> 100 µM
same,TGI,MDA-N,> 100 µM
same,TGI,HOP-62 NSCLC,> 100 µM
same,TGI,NCI-H460 lung,> 100 µM
same,TGI,A498 renal,> 100 µM
same,TGI,MCF7 breast,> 100 µM
same,TGI,KM12 colon,> 100 µM
same,TGI,OVCAR-8 ovarian,> 100 µM
same,TGI,NCI-H226 lung,> 100 µM
same,TGI,A549 NSCLC,> 100 µM
same,TGI,OVCAR-5 ovarian,> 100 µM
same,TGI,OVCAR-4 ovarian,> 100 µM
same,TGI,SF-268 CNS,> 100 µM
same,TGI,NCI-H23 lung,> 100 µM
same,TGI,ACHN renal,> 100 µM
same,TGI,LOX IMVI melanoma,> 100 µM
same,TGI,SF-295 CNS,> 100 µM
same,TGI,UACC-62 melanoma,> 100 µM
same,TGI,CAKI-1 renal,> 100 µM
same,TGI,TK-10 renal,> 100 µM
same,TGI,HCT-15 colon,> 100 µM
same,TGI,786-0 renal,> 100 µM
same,TGI,EKVX NSCLC,> 100 µM
same,TGI,PC-3 prostate,> 100 µM
same,TGI,SW-620 colon,> 100 µM
same,TGI,SK-MEL-5 melanoma,> 100 µM
same,TGI,NCI-H522 lung,> 100 µM
same,TGI,M14 melanoma,> 100 µM
same,TGI,SK-OV-3 ovarian,> 100 µM
same,TGI,T-47D breast,> 100 µM
same,TGI,DU-145 prostate,> 100 µM
COC(=O)[C@H](Cc1ccccc1)NC(=O)[C@H](Cc1ccccc1)NC(=O)CN1C(=O)[C@@H]2C3C=CC(C3)[C@@H]2C1=O,TGI,MDA-MB-435,28.7 µM and 32 µM
same,GI50,CCRF-CEM leukemia,7.9 µM and 19.9 µM
same,TGI,CCRF-CEM leukemia,39.1 µM and 57.3 µM
same,TGI,SK-MEL-28 melanoma,35 µM and 35.7 µM
same,TGI,HL-60(TB) leukemia,40.8 µM and 33.5 µM
same,TGI,SNB-19 CNS,36.6 µM and 39.9 µM
same,TGI,NCI/ADR-RES ovarian,53.9 µM and > 100 µM
same,TGI,SNB-75 CNS,34 µM and 33.7 µM
same,TGI,SF-539 CNS,32 µM and 33.3 µM
same,TGI,MOLT-4 leukemia,5.2 µM and 8.67 µM
same,TGI,MDA-MB-231 breast,31.5 µM and 32.4 µM
same,TGI,UO-31 renal,42.3 µM and 32.1 µM
same,TGI,IGROV1 ovarian,25.5 µM and 30.4 µM
same,TGI,U251 CNS,30 µM and 33.2 µM
same,TGI,OVCAR-3 ovarian,33.1 µM and 37 µM
same,TGI,UACC-257 melanoma,30.9 µM and 33.6 µM
same,TGI,HCT-116 colon,27.3 µM and 30.2 µM
same,TGI,RPMI-8226 leukemia,38.3 µM and 52 µM
same,TGI,SN12C renal,32.9 µM and 30.6 µM
same,TGI,HS 578T breast,38.2 µM and 38 µM
same,TGI,COLO 205 colon,29.7 µM and 30.9 µM
same,TGI,HT29 colon,38.4 µM and 42.1 µM
same,TGI,SK-MEL-2 melanoma,33 µM and 34.5 µM
same,TGI,BT-549 breast,32.1 µM and 30.2 µM
same,GI50,K-562 leukemia,7.26 µM and 17.5 µM
same,TGI,K-562 leukemia,36.2 µM and 42.2 µM
same,TGI,MDA-N,30.2 µM and 30.9 µM
same,TGI,HOP-62 NSCLC,38.5 µM and 39.8 µM
same,TGI,NCI-H460 lung,42.6 µM and 46.3 µM
same,TGI,A498 renal,31.3 µM and 53 µM
same,TGI,MCF7 breast,34.1 µM and 31.7 µM
same,TGI,HCC-2998 colon,30.8 µM and 31 µM
same,TGI,KM12 colon,33.9 µM and 41.7 µM
same,TGI,OVCAR-8 ovarian,27.9 µM and 33.8 µM
same,TGI,NCI-H226 lung,38.5 µM and 39.1 µM
same,TGI,A549 NSCLC,45.9 µM and 44.1 µM
same,TGI,OVCAR-5 ovarian,43.1 µM and 41.7 µM
same,TGI,OVCAR-4 ovarian,31.2 µM and 37.5 µM
same,TGI,SF-268 CNS,26.3 µM and 31.5 µM
same,TGI,NCI-H23 lung,32.1 µM and 33 µM
same,TGI,ACHN renal,29.7 µM and 30.4 µM
same,TGI,LOX IMVI melanoma,33.3 µM and 32.2 µM
same,TGI,SF-295 CNS,35.5 µM and 36.6 µM
same,TGI,UACC-62 melanoma,30 µM and 30.2 µM
same,TGI,CAKI-1 renal,30.6 µM and 35.1 µM
same,TGI,TK-10 renal,31.2 µM and 38.6 µM
same,TGI,HOP-92 NSCLC,33.3 µM and 36.1 µM
same,TGI,HCT-15 colon,31.2 µM and 33.1 µM
same,TGI,786-0 renal,27.2 µM and 28.8 µM
same,TGI,EKVX NSCLC,35.1 µM and 37.3 µM
same,TGI,RXF 393 renal,36.2 µM and 35 µM
same,TGI,PC-3 prostate,29 µM and 30 µM
same,TGI,SW-620 colon,40.8 µM and 48.5 µM
same,TGI,SK-MEL-5 melanoma,28.3 µM and 32.1 µM
same,TGI,NCI-H522 lung,27.8 µM and 31.8 µM
same,TGI,M14 melanoma,41.4 µM and 40.4 µM
same,TGI,SK-OV-3 ovarian,31.7 µM
same,TGI,T-47D breast,47.2 µM and 49 µM
same,TGI,DU-145 prostate,39.1 µM and 34.2 µM
